Experimental data reported in patent US9493455B2, “Azaindole derivatives as inhibitors of protein kinases” (ORIBASE PHARMA, priority 2012, dated 2016).

Columns and labels:
HUVEC = experiment: In vitro cell proliferation assay (MTT); assay type: cell-based; conditions: Homo sapiens, 72 h
Description: (§1) Cancer cell lines (5×10^3 cells per well) or HUVEC (1×10^4 cells per well) or HRMEC (1×10^4 cells per well) were distributed in 96-well plates and incubating in duplicate with escalating concentrations (10 nM to 3 μM) of compounds for 72 hr. Cell proliferation was measured using MTT (3 [4,5-dimethylthiazol-2-yl]-2,5-diphenyltetrazolium bromide).

H1975 = experiment: In vitro cell proliferation assay (MTT); assay type: cell-based; conditions: Homo sapiens, NCI-H1975, 72 h
Description: as §1

BxPC-3 = experiment: In vitro cell proliferation assay (MTT); assay type: cell-based; conditions: Homo sapiens, BXPC-3, 72 h
Description: as §1

HT29 = experiment: In vitro cell proliferation assay (MTT); assay type: cell-based; conditions: Homo sapiens, HT-29, 72 h
Description: as §1

A549 = experiment: In vitro cell proliferation assay (MTT); assay type: cell-based; conditions: Homo sapiens, A549, 72 h
Description: as §1

HepG2 = experiment: In vitro cell proliferation assay (MTT); assay type: cell-based; conditions: Homo sapiens, HepG2, 72 h
Description: as §1

FGFR1 = target: T1, FGFR1 (Homo sapiens, UniProt P11362); experiment: In vitro kinase assay (Z′-LYTE); assay type: biochemical; conditions: read-out: % of inhibition of the kinase compared to the control
T1 construct: purchased Invitrogen
Description: (§2) The inhibitory activity of the compounds on several kinases including BRAF, EGFR (ErbB1), EGFR (ErbB1) T790M L858R, FGFR2, KDR (VEGFR2), PDGFRA (PDGFR alpha), SRC and other was evaluated by Invitrogen using the Z′-LYTE® technology. Briefly, the Z′-LYTE® biochemical assay employs a fluorescence-based, coupled-enzyme format and is based on the differential sensitivity of phosphorylated and non-phosphorylated peptides to proteolytic cleavage. The peptide substrate is labeled with two fluorophores—one at each end—that make up a FRET pair. A ratiometric method, which calculates the ratio (the Emission Ratio) of donor emission to acceptor emission after excitation of the donor fluorophore at 400 nm, is used to quantitate reaction progress.
(§3) The compounds are screened in 1% DMSO (final) in the well. For 10 point titrations, 3-fold serial dilutions are conducted from the starting concentration. All Peptide/Kinase Mixtures are diluted to a 2× working concentration in the appropriate Kinase Buffer. All ATP Solutions are diluted to a 4× working concentration in Kinase Buffer (50 mM HEPES pH 7.5, 0.01% BRIJ-35, 10 mM MgCl2, 1 mM EGTA). ATP Km apparent is previously determined using a Z′-LYTE® assay.
(§4) Each compound was incubated at a concentration of 100 nM (excepted to test the activity against ABL and ABL T315I for which the compounds were incubated at a concentration of 10 μM) and the tables B1 to B12 summarize the results obtained showing the inhibitory power of a compound. The inhibitory activity of OR0512 was also investigated using the same assays and the kinases for which activity was inhibited at more than 50% at the concentration of 100 nM of OR0512 are listed in the table B13.

PDGFRA (PDGFR alpha) = target: T2, PDGFRA (PDGFR alpha) (Homo sapiens, UniProt P16234); experiment: In vitro kinase assay (Z′-LYTE); assay type: biochemical; conditions: read-out: % of inhibition of the kinase compared to the control
T2 construct: purchased Invitrogen
Description: as §2, §3, §4

PDGFRB = target: T3, PDGFRB (Homo sapiens, UniProt P09619); experiment: In vitro kinase assay (Z′-LYTE); assay type: biochemical; conditions: read-out: % of inhibition of the kinase compared to the control
T3 construct: purchased Invitrogen
T3 sequence (P09619 33-1106): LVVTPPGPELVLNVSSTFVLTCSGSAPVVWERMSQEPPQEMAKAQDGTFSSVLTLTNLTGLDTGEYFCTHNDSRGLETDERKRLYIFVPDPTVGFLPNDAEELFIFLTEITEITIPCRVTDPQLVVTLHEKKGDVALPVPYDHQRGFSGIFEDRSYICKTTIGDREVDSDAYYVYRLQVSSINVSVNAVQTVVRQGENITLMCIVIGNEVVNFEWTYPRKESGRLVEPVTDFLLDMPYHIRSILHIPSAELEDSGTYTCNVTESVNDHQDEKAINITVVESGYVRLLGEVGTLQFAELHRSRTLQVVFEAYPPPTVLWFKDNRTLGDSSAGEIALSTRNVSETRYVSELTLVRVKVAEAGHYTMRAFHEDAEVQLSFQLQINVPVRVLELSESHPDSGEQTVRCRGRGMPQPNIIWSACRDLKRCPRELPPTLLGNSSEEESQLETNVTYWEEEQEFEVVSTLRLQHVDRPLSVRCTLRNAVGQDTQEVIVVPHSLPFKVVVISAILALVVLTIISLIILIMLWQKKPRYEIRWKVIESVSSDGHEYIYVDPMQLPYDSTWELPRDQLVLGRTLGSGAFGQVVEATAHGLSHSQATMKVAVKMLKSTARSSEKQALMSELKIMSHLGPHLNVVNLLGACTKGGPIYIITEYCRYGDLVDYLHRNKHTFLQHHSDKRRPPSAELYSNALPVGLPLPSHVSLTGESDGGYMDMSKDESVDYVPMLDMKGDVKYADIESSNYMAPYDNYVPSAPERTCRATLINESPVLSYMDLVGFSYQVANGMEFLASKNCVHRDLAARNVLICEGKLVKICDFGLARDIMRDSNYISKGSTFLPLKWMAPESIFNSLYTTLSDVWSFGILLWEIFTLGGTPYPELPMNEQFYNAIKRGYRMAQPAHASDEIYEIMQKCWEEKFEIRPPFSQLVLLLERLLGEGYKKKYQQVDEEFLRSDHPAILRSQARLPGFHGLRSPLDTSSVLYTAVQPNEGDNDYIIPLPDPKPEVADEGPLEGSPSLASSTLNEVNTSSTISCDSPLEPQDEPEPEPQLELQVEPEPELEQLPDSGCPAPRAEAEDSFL
Description: as §2, §3, §4

FGFR2 = target: T4, FGFR2 (Homo sapiens, UniProt P21802); experiment: In vitro kinase assay (Z′-LYTE); assay type: biochemical; conditions: read-out: % of inhibition of the kinase compared to the control
T4 construct: purchased Invitrogen
Description: as §2, §3, §4

KDR (VEGFR2) = target: T5, KDR (VEGFR2) (Homo sapiens, UniProt P35968); experiment: In vitro kinase assay (Z′-LYTE); assay type: biochemical; conditions: read-out: % of inhibition of the kinase compared to the control
T5 construct: purchased Invitrogen
Description: as §2, §3, §4

VEGFR1 = target: T6, VEGFR1 (Homo sapiens, UniProt P17948); experiment: In vitro kinase assay (Z′-LYTE); assay type: biochemical; conditions: read-out: % of inhibition of the kinase compared to the control
T6 construct: purchased Invitrogen
T6 sequence (P17948 27-1338): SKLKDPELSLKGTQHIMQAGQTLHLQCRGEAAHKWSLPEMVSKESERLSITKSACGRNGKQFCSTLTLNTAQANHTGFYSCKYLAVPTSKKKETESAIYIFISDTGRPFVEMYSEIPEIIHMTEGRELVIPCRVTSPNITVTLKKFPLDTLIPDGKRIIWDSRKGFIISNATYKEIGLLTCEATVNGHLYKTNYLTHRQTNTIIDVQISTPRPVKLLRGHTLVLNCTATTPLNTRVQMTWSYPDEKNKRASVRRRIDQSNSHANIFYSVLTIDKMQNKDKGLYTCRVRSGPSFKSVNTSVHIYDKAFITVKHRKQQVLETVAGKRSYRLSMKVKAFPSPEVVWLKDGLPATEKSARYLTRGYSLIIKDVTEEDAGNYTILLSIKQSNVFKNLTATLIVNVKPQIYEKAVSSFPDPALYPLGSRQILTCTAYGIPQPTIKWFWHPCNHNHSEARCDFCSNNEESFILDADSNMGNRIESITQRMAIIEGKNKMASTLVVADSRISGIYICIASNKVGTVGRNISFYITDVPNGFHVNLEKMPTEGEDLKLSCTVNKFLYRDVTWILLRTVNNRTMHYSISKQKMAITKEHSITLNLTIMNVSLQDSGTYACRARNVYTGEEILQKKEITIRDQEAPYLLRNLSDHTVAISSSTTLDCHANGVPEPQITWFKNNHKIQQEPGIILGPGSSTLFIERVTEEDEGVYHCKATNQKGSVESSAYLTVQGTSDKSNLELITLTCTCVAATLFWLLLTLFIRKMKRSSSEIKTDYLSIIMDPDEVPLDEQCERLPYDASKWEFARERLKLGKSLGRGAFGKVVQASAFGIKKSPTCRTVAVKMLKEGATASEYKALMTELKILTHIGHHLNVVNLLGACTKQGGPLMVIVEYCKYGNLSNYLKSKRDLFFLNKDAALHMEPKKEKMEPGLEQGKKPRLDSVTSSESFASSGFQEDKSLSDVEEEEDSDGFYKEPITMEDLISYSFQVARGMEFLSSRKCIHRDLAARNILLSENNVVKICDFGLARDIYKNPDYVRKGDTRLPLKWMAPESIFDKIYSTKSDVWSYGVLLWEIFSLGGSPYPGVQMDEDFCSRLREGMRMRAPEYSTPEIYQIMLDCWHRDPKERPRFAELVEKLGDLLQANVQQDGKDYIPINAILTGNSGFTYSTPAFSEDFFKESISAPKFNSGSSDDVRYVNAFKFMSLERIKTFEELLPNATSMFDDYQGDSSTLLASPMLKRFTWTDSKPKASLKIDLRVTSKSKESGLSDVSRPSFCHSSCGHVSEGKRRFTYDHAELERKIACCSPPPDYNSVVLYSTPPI
Description: as §2, §3, §4

ABL T315I = target: T7, ABL T315I (Homo sapiens, UniProt P00519, T315I); experiment: In vitro kinase assay (Z′-LYTE); assay type: biochemical; conditions: read-out: % of inhibition of the kinase compared to the control
T7 construct: purchased Invitrogen
Description: as §2, §3, §4

EGFR (ErbB1) T790M L858R = target: T8, EGFR (ErbB1) T790M L858R (Homo sapiens, UniProt P00533, L858R/T790M); experiment: In vitro kinase assay (Z′-LYTE); assay type: biochemical; conditions: read-out: % of inhibition of the kinase compared to the control
T8 construct: purchased Invitrogen
T8 sequence (P00533 25-1210 T790M/L858R): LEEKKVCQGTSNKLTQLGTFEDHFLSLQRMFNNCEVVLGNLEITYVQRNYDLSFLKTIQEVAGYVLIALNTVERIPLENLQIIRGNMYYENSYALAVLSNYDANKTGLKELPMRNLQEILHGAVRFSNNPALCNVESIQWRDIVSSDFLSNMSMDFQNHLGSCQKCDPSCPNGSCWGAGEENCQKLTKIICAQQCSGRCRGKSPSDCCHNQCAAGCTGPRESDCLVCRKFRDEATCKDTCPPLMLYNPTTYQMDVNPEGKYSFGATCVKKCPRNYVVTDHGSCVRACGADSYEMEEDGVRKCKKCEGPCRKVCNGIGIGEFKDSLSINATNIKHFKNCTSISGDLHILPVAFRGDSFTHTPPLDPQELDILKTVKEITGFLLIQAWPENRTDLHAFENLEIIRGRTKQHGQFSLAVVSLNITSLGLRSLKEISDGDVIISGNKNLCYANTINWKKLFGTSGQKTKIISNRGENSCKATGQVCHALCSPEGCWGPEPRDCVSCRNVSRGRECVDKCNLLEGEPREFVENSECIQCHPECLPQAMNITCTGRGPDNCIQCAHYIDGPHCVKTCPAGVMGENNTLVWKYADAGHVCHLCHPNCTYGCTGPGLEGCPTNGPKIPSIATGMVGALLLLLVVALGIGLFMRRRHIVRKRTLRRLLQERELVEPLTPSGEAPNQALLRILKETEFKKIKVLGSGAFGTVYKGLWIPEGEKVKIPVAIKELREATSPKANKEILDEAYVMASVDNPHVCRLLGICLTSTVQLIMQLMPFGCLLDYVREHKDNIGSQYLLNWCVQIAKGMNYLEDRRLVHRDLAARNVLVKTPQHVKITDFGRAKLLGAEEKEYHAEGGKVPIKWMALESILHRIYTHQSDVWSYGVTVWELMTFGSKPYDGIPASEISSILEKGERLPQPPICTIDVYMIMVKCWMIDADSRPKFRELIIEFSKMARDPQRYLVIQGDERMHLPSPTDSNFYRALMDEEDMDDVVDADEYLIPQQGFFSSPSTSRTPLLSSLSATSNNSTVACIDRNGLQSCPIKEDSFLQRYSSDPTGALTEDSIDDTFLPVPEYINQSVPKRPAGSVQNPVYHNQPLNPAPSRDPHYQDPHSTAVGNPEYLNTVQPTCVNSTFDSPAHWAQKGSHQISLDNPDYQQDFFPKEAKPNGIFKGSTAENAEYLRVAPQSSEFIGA
Description: as §2, §3, §4

EGFR (ErbB1) = target: T9, EGFR (ErbB1) (Homo sapiens, UniProt P00533); experiment: In vitro kinase assay (Z′-LYTE); assay type: biochemical; conditions: read-out: % of inhibition of the kinase compared to the control
T9 construct: purchased Invitrogen
Description: as §2, §3, §4

ABL = target: T10, ABL (Homo sapiens, UniProt P00519); experiment: In vitro kinase assay (Z′-LYTE); assay type: biochemical; conditions: read-out: % of inhibition of the kinase compared to the control
T10 construct: purchased Invitrogen
Description: as §2, §3, §4

BRAF = target: T11, BRAF (Homo sapiens, UniProt P15056); experiment: In vitro kinase assay (Z′-LYTE); assay type: biochemical; conditions: compound 100 nM; ATP 100 μM; read-out: % of inhibition of the kinase compared to the control
T11 construct: purchased Invitrogen
T11 sequence (P15056 whole entry): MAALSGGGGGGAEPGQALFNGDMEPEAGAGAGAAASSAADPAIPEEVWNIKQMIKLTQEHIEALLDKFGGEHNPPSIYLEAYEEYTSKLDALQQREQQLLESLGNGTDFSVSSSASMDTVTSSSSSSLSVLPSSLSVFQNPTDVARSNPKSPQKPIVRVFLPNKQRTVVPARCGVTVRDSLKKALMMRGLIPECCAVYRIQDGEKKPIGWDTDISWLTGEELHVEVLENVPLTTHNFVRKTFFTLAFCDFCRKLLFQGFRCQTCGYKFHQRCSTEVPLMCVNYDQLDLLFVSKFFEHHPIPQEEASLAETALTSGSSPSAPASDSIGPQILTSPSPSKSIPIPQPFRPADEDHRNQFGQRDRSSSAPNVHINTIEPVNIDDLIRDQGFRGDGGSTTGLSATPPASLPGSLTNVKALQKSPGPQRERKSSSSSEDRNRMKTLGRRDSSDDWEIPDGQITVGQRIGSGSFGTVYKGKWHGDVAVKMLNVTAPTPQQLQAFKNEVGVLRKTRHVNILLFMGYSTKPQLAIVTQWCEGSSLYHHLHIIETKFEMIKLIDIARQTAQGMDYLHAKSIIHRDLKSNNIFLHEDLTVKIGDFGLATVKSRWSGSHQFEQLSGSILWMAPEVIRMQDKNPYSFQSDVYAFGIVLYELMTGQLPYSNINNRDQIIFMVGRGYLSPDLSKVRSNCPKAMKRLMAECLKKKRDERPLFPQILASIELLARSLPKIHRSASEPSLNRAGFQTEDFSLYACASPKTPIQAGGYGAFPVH
Description: as §2, §3, §4

SRC = target: T12, SRC (Homo sapiens, UniProt P12931); experiment: In vitro kinase assay (Z′-LYTE); assay type: biochemical; conditions: read-out: % of inhibition of the kinase compared to the control
T12 construct: purchased Invitrogen
T12 sequence (P12931 whole entry): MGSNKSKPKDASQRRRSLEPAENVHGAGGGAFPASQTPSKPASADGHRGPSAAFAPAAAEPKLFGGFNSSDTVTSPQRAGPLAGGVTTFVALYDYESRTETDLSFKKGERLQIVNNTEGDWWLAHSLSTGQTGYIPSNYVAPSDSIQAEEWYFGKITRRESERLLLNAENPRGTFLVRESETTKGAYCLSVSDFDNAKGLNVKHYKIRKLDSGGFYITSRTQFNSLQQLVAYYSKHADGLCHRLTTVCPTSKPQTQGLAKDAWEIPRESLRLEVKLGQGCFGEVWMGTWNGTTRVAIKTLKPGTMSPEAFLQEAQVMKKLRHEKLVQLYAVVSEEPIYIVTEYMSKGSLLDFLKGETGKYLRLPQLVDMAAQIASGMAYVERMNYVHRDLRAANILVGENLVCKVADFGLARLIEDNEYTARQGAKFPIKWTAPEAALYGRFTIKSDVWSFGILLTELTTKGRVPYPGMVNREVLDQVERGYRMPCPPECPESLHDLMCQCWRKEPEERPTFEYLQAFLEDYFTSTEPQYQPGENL
Description: as §2, §3, §4

SMILES	EC50 (HUVEC) [µM]	EC50 (H1975) [µM]	EC50 (BxPC-3) [µM]	EC50 (HT29) [µM]	EC50 (A549) [µM]	EC50 (HepG2) [µM]	inhibition at 0.1 µM (FGFR1) [%]	inhibition at 0.1 µM (PDGFRA (PDGFR alpha)) [%]	inhibition at 0.1 µM (PDGFRB) [%]	inhibition at 0.1 µM (FGFR2) [%]	inhibition at 0.1 µM (KDR (VEGFR2)) [%]	inhibition at 0.1 µM (VEGFR1) [%]	inhibition at 10 µM (ABL T315I) [%]	inhibition at 0.1 µM (EGFR (ErbB1) T790M L858R) [%]	inhibition at 0.1 µM (EGFR (ErbB1)) [%]	inhibition at 10 µM (ABL) [%]	inhibition at 0.1 µM (BRAF) [%]	inhibition at 0.1 µM (SRC) [%]
C#Cc1cccc(Nc2ncnc3cc(OCCOC)c(OCCOC)cc23)c1 [Erlotinib, reference compound]	≥ 1	≥ 1	≥ 1	–	–	–	–	–	–	–	–	–	–	–	–	–	–	–
COC(=O)c1cc2cc(NCc3cc(NC(=O)c4ccc(CN5CCOCC5)c(C(F)(F)F)c4)ccc3C)cnc2[nH]1 [OR0598]	≤ 0.1	0.1 to 1	0.1 to 1	0.1 to 1	0.1 to 1	0.1 to 1	< 50	≥ 50	< 50	< 50	< 50	< 50	≥ 50	< 50	≥ 50	≥ 50	< 50	≥ 50
COC(=O)c1cc2cc(NCc3cc(NC(=O)Cc4cccc(C(F)(F)F)c4)ccc3C)cnc2[nH]1 [OR0601]	≤ 0.1	≥ 1	≥ 1	0.1 to 1	0.1 to 1	≤ 0.1	< 50	≥ 50	< 50	< 50	< 50	< 50	< 50	< 50	< 50	≥ 50	≥ 50	≥ 50
COC(=O)c1cc2cc(NCc3cc(NC(=O)c4cccc(Br)c4)ccc3C)cnc2[nH]1 [OR0608]	0.1 to 1	≥ 1	0.1 to 1	≥ 1	0.1 to 1	0.1 to 1	< 50	≥ 50	< 50	< 50	≥ 50	< 50	< 50	< 50	< 50	≥ 50	≥ 50	≥ 50
COC(=O)c1cc2cc(NCc3cc(NC(=O)C4CCC(C(F)(F)F)CC4)ccc3C)cnc2[nH]1 (centres unmarked) [OR0612]	0.1 to 1	≥ 1	0.1 to 1	≥ 1	0.1 to 1	0.1 to 1	< 50	≥ 50	< 50	< 50	< 50	< 50	< 50	< 50	< 50	≥ 50	< 50	≥ 50
COC(=O)c1cc2cc(NCc3ccc(C)c(NC(=O)c4ccc(CN5CCN(C)CC5)c(C(F)(F)F)c4)c3)cnc2[nH]1 [OR0622]	0.1 to 1	≥ 1	≥ 1	≥ 1	≥ 1	≥ 1	≥ 50	≥ 50	< 50	≥ 50	≥ 50	< 50	≥ 50	< 50	< 50	≥ 50	< 50	≥ 50
COC(=O)c1cc2cc(NCc3cc(NC(=O)c4ccc(CNCCN5CCN(C)CC5)c(C(F)(F)F)c4)ccc3C)cnc2[nH]1 [OR0637]	0.1 to 1	≥ 1	≥ 1	0.1 to 1	0.1 to 1	0.1 to 1	< 50	≥ 50	≥ 50	< 50	≥ 50	< 50	≥ 50	≥ 50	≥ 50	≥ 50	≥ 50	≥ 50
COC(=O)c1cc2cc(NC(=O)c3cc(NC(=S)c4cc(-n5cnc(C)c5)cc(C(F)(F)F)c4)ccc3C)cnc2[nH]1 [OR0643]	–	–	≥ 1	–	–	–	< 50	< 50	< 50	< 50	< 50	< 50	< 50	< 50	< 50	≥ 50	< 50	< 50
CCCOC(=O)c1cc2cc(NCc3cc(NC(=O)c4ccc(CN5CCN(C)CC5)c(C(F)(F)F)c4)ccc3C)cnc2[nH]1 [OR0697, 5-{2-methyl-5-[4-(4-methyl-piperazin-1-ylmethyl)-3-trifluoromethyl-benzoylamino]-benzylamino}-1H-pyrrolo[2,3-b]pyridine-2-carboxylic acid propyl ester]	0.1 to 1	≥ 1	0.1 to 1	0.1 to 1	0.1 to 1	0.1 to 1	–	< 50	–	< 50	< 50	–	–	< 50	≥ 50	–	< 50	≥ 50
